Test results: US20050197350A1, “Novel quinoline, tetrahydroquinazoline, and pyrimidine derivatives and methods of treatment related to the use thereof” (TAISHO PHARMACEUTICAL CO., LTD., priority 2003, published 2005)

Each molecule was assayed on MCH receptors (assay: MCH receptor activity class (method not given)). Conditions: class by percent of control at 10^-7 M or IC50.

SMILES | class
CN(C)c1nc(N[C@H]2CC[C@@H](CNCc3c[nH]c4ccccc34)CC2)nc2c1CCCC2 [compound 1366] | 2 (Class 2: The value of percent of control at 10^−7 M was from 40% to 60% or the value of IC′50 was from 50 nM to 200 nM.)
COc1ccc(OC)c(CNC[C@H]2CC[C@@H](Nc3nc4c(c(N(C)C)n3)CCCC4)CC2)c1 [compound 1367] | 2 (Class 2: The value of percent of control at 10^−7 M was from 40% to 60% or the value of IC′50 was from 50 nM to 200 nM.)
COc1ccc(CNC[C@H]2CC[C@@H](Nc3nc4c(c(N(C)C)n3)CCCC4)CC2)c2ccccc12 [compound 1368] | 2 (Class 2: The value of percent of control at 10^−7 M was from 40% to 60% or the value of IC′50 was from 50 nM to 200 nM.)
COc1ccc2[nH]cc(CNC[C@H]3CC[C@@H](Nc4nc5c(c(N(C)C)n4)CCCC5)CC3)c2c1 [compound 1369] | 1 (Class 1: The value of percent of control at 10^−7 M was less than 40% or the value of IC50 was less than 50 nM.)
COc1ccc2ccccc2c1CNC[C@H]1CC[C@@H](Nc2nc3c(c(N(C)C)n2)CCCC3)CC1 [compound 1370] | 3 (Class 3 The value of percent of control at 10^−7 M was more than 60% or the value of IC50 was more than 200 nM.)
COc1cc(Br)cc(CNC[C@H]2CC[C@@H](Nc3nc4c(c(N(C)C)n3)CCCC4)CC2)c1O [compound 1371] | 2 (Class 2: The value of percent of control at 10^−7 M was from 40% to 60% or the value of IC′50 was from 50 nM to 200 nM.)
CN(C)c1nc(N[C@H]2CC[C@@H](CNCc3c[nH]c4ccc(Br)cc34)CC2)nc2c1CCCC2 [compound 1372] | 1 (Class 1: The value of percent of control at 10^−7 M was less than 40% or the value of IC50 was less than 50 nM.)
COc1ccc(CNC[C@H]2CC[C@@H](Nc3nc4c(c(N(C)C)n3)CCCC4)CC2)c(OC)c1 [compound 1373] | 3 (Class 3 The value of percent of control at 10^−7 M was more than 60% or the value of IC50 was more than 200 nM.)
COc1ccc(CNC[C@H]2CC[C@@H](Nc3nc4c(c(N(C)C)n3)CCCC4)CC2)c(OC)c1OC [compound 1374] | 3 (Class 3 The value of percent of control at 10^−7 M was more than 60% or the value of IC50 was more than 200 nM.)
COc1cc(CNC[C@H]2CC[C@@H](Nc3nc4c(c(N(C)C)n3)CCCC4)CC2)cc(OC)c1O [compound 1375] | 3 (Class 3 The value of percent of control at 10^−7 M was more than 60% or the value of IC50 was more than 200 nM.)
CCOc1cc(CNC[C@H]2CC[C@@H](Nc3nc4c(c(N(C)C)n3)CCCC4)CC2)ccc1OC [compound 1376] | 1 (Class 1: The value of percent of control at 10^−7 M was less than 40% or the value of IC50 was less than 50 nM.)
CN(C)c1nc(N[C@H]2CC[C@@H](CNCc3c[nH]nc3-c3ccc(C(F)(F)F)cc3)CC2)nc2c1CCCC2 [compound 1377] | 2 (Class 2: The value of percent of control at 10^−7 M was from 40% to 60% or the value of IC′50 was from 50 nM to 200 nM.)
COc1cc(CNC[C@H]2CC[C@@H](Nc3nc4c(c(N(C)C)n3)CCCC4)CC2)cc(OC)c1OC [compound 1378] | 2 (Class 2: The value of percent of control at 10^−7 M was from 40% to 60% or the value of IC′50 was from 50 nM to 200 nM.)
COc1cc(CNC[C@H]2CC[C@@H](Nc3nc4c(c(N(C)C)n3)CCCC4)CC2)cc(OC)c1 [compound 1380] | 2 (Class 2: The value of percent of control at 10^−7 M was from 40% to 60% or the value of IC′50 was from 50 nM to 200 nM.)
COc1cc(CNC[C@H]2CC[C@@H](Nc3nc4c(c(N(C)C)n3)CCCC4)CC2)cc(I)c1O [compound 1381] | 1 (Class 1: The value of percent of control at 10^−7 M was less than 40% or the value of IC50 was less than 50 nM.)
Cc1cc(CNC[C@H]2CC[C@@H](Nc3nc4c(c(N(C)C)n3)CCCC4)CC2)cc(C)c1O [compound 1382] | 2 (Class 2: The value of percent of control at 10^−7 M was from 40% to 60% or the value of IC′50 was from 50 nM to 200 nM.)
COc1ccc(CNC[C@H]2CC[C@@H](Nc3nc4c(c(N(C)C)n3)CCCC4)CC2)cc1 [compound 1383] | 3 (Class 3 The value of percent of control at 10^−7 M was more than 60% or the value of IC50 was more than 200 nM.)
CN(C)c1nc(N[C@H]2CC[C@@H](CNCc3ccc4c(c3)OCCO4)CC2)nc2c1CCCC2 [compound 1384] | 3 (Class 3 The value of percent of control at 10^−7 M was more than 60% or the value of IC50 was more than 200 nM.)
CN(C)c1nc(N[C@H]2CC[C@@H](CNCc3cccc(Br)c3)CC2)nc2c1CCCC2 [compound 1385] | 3 (Class 3 The value of percent of control at 10^−7 M was more than 60% or the value of IC50 was more than 200 nM.)
COc1cc(OC)c(CNC[C@H]2CC[C@@H](Nc3nc4c(c(N(C)C)n3)CCCC4)CC2)cc1Br [compound 1386] | 3 (Class 3 The value of percent of control at 10^−7 M was more than 60% or the value of IC50 was more than 200 nM.)
COc1ccc(Br)cc1CNC[C@H]1CC[C@@H](Nc2nc3c(c(N(C)C)n2)CCCC3)CC1 [compound 1387] | 3 (Class 3 The value of percent of control at 10^−7 M was more than 60% or the value of IC50 was more than 200 nM.)
CN(C)c1nc(N[C@H]2CC[C@@H](CNCc3ccc(O)cc3Cl)CC2)nc2c1CCCC2 [compound 1388] | 2 (Class 2: The value of percent of control at 10^−7 M was from 40% to 60% or the value of IC′50 was from 50 nM to 200 nM.)

SMILES | class
CN(C)c1nc(N[C@H]2CC[C@@H](CNCc3ccccc3C#N)CC2)nc2c1CCCC2 [compound 1389] | 3 (Class 3 The value of percent of control at 10^−7 M was more than 60% or the value of IC50 was more than 200 nM.)
CN(C)c1nc(N[C@H]2CC[C@@H](CNCc3cccc(Cl)c3)CC2)nc2c1CCCC2 [compound 1390] | 3 (Class 3 The value of percent of control at 10^−7 M was more than 60% or the value of IC50 was more than 200 nM.)
CN(C)c1nc(N[C@H]2CC[C@@H](CNCc3ccc(Cl)cc3)CC2)nc2c1CCCC2 [compound 1391] | 3 (Class 3 The value of percent of control at 10^−7 M was more than 60% or the value of IC50 was more than 200 nM.)
CCN(CC)c1ccc(CNC[C@H]2CC[C@@H](Nc3nc4c(c(N(C)C)n3)CCCC4)CC2)cc1 [compound 1392] | 2 (Class 2: The value of percent of control at 10^−7 M was from 40% to 60% or the value of IC′50 was from 50 nM to 200 nM.)
CN(C)c1ccc(CNC[C@H]2CC[C@@H](Nc3nc4c(c(N(C)C)n3)CCCC4)CC2)cc1 [compound 1393] | 3 (Class 3 The value of percent of control at 10^−7 M was more than 60% or the value of IC50 was more than 200 nM.)
CCn1c2ccccc2c2cc(CNC[C@H]3CC[C@@H](Nc4nc5c(c(N(C)C)n4)CCCC5)CC3)ccc21 [compound 1394] | 3 (Class 3 The value of percent of control at 10^−7 M was more than 60% or the value of IC50 was more than 200 nM.)
CN(C)c1nc(N[C@H]2CC[C@@H](CNCc3cc(C(F)(F)F)ccc3F)CC2)nc2c1CCCC2 [compound 1395] | 3 (Class 3 The value of percent of control at 10^−7 M was more than 60% or the value of IC50 was more than 200 nM.)
CN(C)c1nc(N[C@H]2CC[C@@H](CNCc3ccc(O)cc3)CC2)nc2c1CCCC2 [compound 1396] | 3 (Class 3 The value of percent of control at 10^−7 M was more than 60% or the value of IC50 was more than 200 nM.)
CN(C)c1nc(N[C@H]2CC[C@@H](CNCc3ccc(CO)o3)CC2)nc2c1CCCC2 [compound 1397] | 3 (Class 3 The value of percent of control at 10^−7 M was more than 60% or the value of IC50 was more than 200 nM.)
CC(C)Oc1ccc(CNC[C@H]2CC[C@@H](Nc3nc4c(c(N(C)C)n3)CCCC4)CC2)cc1 [compound 1398] | 3 (Class 3 The value of percent of control at 10^−7 M was more than 60% or the value of IC50 was more than 200 nM.)
CCc1ccc(CNC[C@H]2CC[C@@H](Nc3nc4c(c(N(C)C)n3)CCCC4)CC2)s1 [compound 1399] | 3 (Class 3 The value of percent of control at 10^−7 M was more than 60% or the value of IC50 was more than 200 nM.)
CN(C)c1nc(N[C@H]2CC[C@@H](CNCC=C(c3ccccc3)c3ccccc3)CC2)nc2c1CCCC2 [compound 1400] | 1 (Class 1: The value of percent of control at 10^−7 M was less than 40% or the value of IC50 was less than 50 nM.)
CCOc1cc(CNC[C@H]2CC[C@@H](Nc3nc4c(c(N(C)C)n3)CCCC4)CC2)ccc1O [compound 1401] | 2 (Class 2: The value of percent of control at 10^−7 M was from 40% to 60% or the value of IC′50 was from 50 nM to 200 nM.)
CN(C)c1nc(N[C@H]2CC[C@@H](CNCc3ccc(N(C)C)c4ccccc34)CC2)nc2c1CCCC2 [compound 1402] | 2 (Class 2: The value of percent of control at 10^−7 M was from 40% to 60% or the value of IC′50 was from 50 nM to 200 nM.)
COc1cc(OC)c(CNC[C@H]2CC[C@@H](Nc3nc4c(c(N(C)C)n3)CCCC4)CC2)c(OC)c1 [compound 1403] | 1 (Class 1: The value of percent of control at 10^−7 M was less than 40% or the value of IC50 was less than 50 nM.)
CN(C)c1nc(N[C@H]2CC[C@@H](CNCc3cc(Cl)cc(Br)c3O)CC2)nc2c1CCCC2 [compound 1404] | 2 (Class 2: The value of percent of control at 10^−7 M was from 40% to 60% or the value of IC′50 was from 50 nM to 200 nM.)
CN(C)c1nc(N[C@H]2CC[C@@H](CNCc3cccc(C#N)c3)CC2)nc2c1CCCC2 [compound 1405] | 3 (Class 3 The value of percent of control at 10^−7 M was more than 60% or the value of IC50 was more than 200 nM.)
COc1ccc(F)c(CNC[C@H]2CC[C@@H](Nc3nc4c(c(N(C)C)n3)CCCC4)CC2)c1 [compound 1406] | 3 (Class 3 The value of percent of control at 10^−7 M was more than 60% or the value of IC50 was more than 200 nM.)
CN(C)c1nc(N[C@H]2CC[C@@H](CNCc3ccccc3SC(F)(F)F)CC2)nc2c1CCCC2 [compound 1407] | 3 (Class 3 The value of percent of control at 10^−7 M was more than 60% or the value of IC50 was more than 200 nM.)
CCOc1ccc(Br)cc1CNC[C@H]1CC[C@@H](Nc2nc3c(c(N(C)C)n2)CCCC3)CC1 [compound 1408] | 3 (Class 3 The value of percent of control at 10^−7 M was more than 60% or the value of IC50 was more than 200 nM.)
COc1ccc(CNC[C@H]2CC[C@@H](Nc3nc4c(c(N(C)C)n3)CCCC4)CC2)c(OC)c1C [compound 1409] | 3 (Class 3 The value of percent of control at 10^−7 M was more than 60% or the value of IC50 was more than 200 nM.)
